pIC50: −log10 of the molar value.
What follows are compounds tested against T1, PARP1 (Homo sapiens, UniProt P09874) (assay: PARP1 Biochemical Assay (BPS Bioscience kit, chemiluminescence)). Conditions: histone-coated plate, biotinilated NAD+, 25° C. for 60 min, luminescence, read-out: PARP 1 inhibition IC50.
T1 construct: purchased BPS Bioscience
Experimental: The assay was performed using BPS Bioscience kit. The 96-well strip plate was coated with 50 μl of histone mixture and incubated at 4° C. overnight. Next day the wells were blocked by adding 100 μl of blocking buffer. The plate was washed and 25 μl of appropriate concentration of PARP1 (25-75 ng/well) was added in all the Test and Positive control wells. In Negative control wells enzyme was replaced with 25 μl of water. To it 5 μl each of 10×PARP assay buffer and activated DNA was added in all the wells (Test, Positive and Negative control wells). 10× concentration of test compounds were prepared and 5 μl test compounds were added respective wells. Reaction volume was made up to 45 μl by adding water to all the wells. Finally, 5 μl of 10×PARP assay mixture containing biotinilated NAD^+ was added in each well and the plate was incubated at ambient temperature (25° C.) for 60 min. After washing the plate 50 μl of Streptavidin-HRP was added in each well and incubated the plate at RT for 30 min. The plate was washed and the luminescence was read in PHERAStar plate reader after adding 100 μl of chemiluminescent substrate.
PARP inhibition was calculated using the following formula: % PARP inhibition=100−[(RLU test compound treated sample−RLU negative control)/(RLU Positive control−RLU negative control)×100]
IC50 values were calculated by plotting % inhibition against the respective concentrations of test compounds using GraphPad Prism 5.

T1 sequence (P09874 whole entry): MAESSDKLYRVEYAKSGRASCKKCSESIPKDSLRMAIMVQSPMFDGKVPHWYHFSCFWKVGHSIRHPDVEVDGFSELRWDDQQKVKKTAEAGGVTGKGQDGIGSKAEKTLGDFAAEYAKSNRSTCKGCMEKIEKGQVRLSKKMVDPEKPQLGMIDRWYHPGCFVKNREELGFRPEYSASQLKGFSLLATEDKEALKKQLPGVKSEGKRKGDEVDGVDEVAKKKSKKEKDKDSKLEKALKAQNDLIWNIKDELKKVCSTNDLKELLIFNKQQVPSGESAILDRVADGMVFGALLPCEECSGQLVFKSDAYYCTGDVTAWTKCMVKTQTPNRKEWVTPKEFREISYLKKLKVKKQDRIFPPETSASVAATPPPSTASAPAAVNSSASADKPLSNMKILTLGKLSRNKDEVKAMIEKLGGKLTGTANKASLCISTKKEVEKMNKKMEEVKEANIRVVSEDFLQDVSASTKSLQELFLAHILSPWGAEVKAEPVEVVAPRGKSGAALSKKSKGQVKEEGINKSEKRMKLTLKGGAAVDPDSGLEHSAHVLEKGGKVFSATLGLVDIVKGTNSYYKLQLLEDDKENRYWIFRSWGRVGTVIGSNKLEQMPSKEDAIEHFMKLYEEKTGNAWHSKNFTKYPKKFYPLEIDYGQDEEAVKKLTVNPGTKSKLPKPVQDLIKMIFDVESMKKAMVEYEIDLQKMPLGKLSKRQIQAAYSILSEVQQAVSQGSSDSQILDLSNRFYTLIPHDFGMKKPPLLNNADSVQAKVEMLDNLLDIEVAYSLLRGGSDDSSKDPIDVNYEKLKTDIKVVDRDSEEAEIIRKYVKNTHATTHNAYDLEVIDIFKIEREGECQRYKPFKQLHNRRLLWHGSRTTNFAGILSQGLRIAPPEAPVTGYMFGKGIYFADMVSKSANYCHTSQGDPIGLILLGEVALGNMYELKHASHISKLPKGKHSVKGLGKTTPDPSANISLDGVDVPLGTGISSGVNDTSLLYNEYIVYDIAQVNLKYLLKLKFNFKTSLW

| SMILES | pIC50 |
| --- | --- |
| O=c1[nH]c([C@H]2CC[C@@H](N3CCN(c4ccc(Cl)cc4)CC3)C2)nc2c1CC1(CC2)CC1 [Compound 120, 2′-((1S,3R)-3-(4-(4-chlorophenyl)piperazin-1-yl)cyclopentyl)-7′,8′-dihydro-3′H-spiro[cyclopropane-1,6′-quinazolin]-4′(5′H)-one] | 5.30 to 6.30 |
| O=c1[nH]c(C2=C[C@H](N3CCN(c4ccc(-c5ccccc5)nc4)CC3)CC2)nc2c1CC1(CC2)CC1 [Compound 157, (R)-2′-(3-(4-(6-phenylpyridin-3-yl)piperazin-1-yl)cyclopent-1-en-1-yl)-7′,8′-dihydro-3′H-spiro[cyclopropane-1,6′-quinazolin]-4′(5′H)-one] | 5.30 to 6.30 |
| O=c1[nH]c(CCCN2CCN(c3ccc(Cl)cc3)CC2)nc2c1C1CCC2C1 (stereo not drawn) [Compound 36, 2-(3-(4-(4-chlorophenyl)piperazin-1-yl)propyl)-5,6,7,8-tetrahydro-5,8-methanoquinazolin-4(3H)-one] | 3.30 to 5.30 |
| O=c1[nH]c(C2=C[C@H](N3CCN(c4cccc(Cl)c4F)CC3)CC2)nc2c1CC1(CC2)CC1 [Compound 99, (R)-2′-(3-(4-(3-chloro-2-fluorophenyl)piperazin-1-yl)cyclopent-1-en-1-yl)-7′,8′-dihydro-3′H-spiro[cyclopropane-1,6′-quinazolin]-4′(5′H)-one] | 5.30 to 6.30 |
| Cc1cccc(N2CCN(CCCc3nc4c(c(=O)[nH]3)CC3(CC4)CC3)CC2)c1 [Compound 23, 2′-(3-(4-(m-tolyl)piperazin-1-yl)propyl)-7′,8′-dihydro-3′H-spiro[cyclopropane-1,6′-quinazolin]-4′(5′H)-one] | 3.30 to 5.30 |
| CC1CN(c2ccc(F)cc2)CC(C)N1CCCc1nc2c(c(=O)[nH]1)CC1(CC2)CC1 (stereo not drawn) [Compound 26, 2′-(3-(4-(4-fluorophenyl)-2,6-dimethylpiperazin-1-yl)propyl)-7′,8′-dihydro-3′H-spiro[cyclopropane-1,6′-quinazolin]-4′(5′H)-one] | 3.30 to 5.30 |
| O=c1[nH]c([C@@H]2CC[C@H](N3CCN(c4ccc(Cl)cc4)CC3)C2)nc2c1CC1(CC2)CC1 [Compound 118, 2′-((1R,3S)-3-(4-(4-chlorophenyl)piperazin-1-yl)cyclopentyl)-7′,8′-dihydro-3′H-spiro[cyclopropane-1,6′-quinazolin]-4′(5′H)-one] | 5.30 to 6.30 |
| O=c1[nH]c(C2=C[C@H](N3CCN(c4ccc(-c5ccsc5)cc4)CC3)CC2)nc2c1CC1(CC2)CC1 [Compound 148, (R)-2′-(3-(4-(4-(thiophen-3-yl)phenyl)piperazin-1-yl)cyclopent-1-en-1-yl)-7′,8′-dihydro-3′H-spiro[cyclopropane-1,6′-quinazolin]-4′(5′H)-one] | 5.30 to 6.30 |
| O=c1[nH]c(C2=CC(N3C4CCC3CN(c3ccc(Cl)cc3)C4)CC2)nc2c1CC1(CC2)CC1 (stereo not drawn) [Compound 159, 2′-(3-(3-(4-chlorophenyl)-3,8-diazabicyclo[3.2.1]octan-8-yl)cyclopent-1-en-1-yl)-7′,8′-dihydro-3′H-spiro[cyclopropane-1,6′-quinazolin]-4′(5′H)-one] | 3.30 to 5.30 |
| O=c1[nH]c([C@@H]2CC[C@H](N3CCN(c4ccc(F)cc4)CC3)C2)nc2c1CC1(CC2)CC1 [Compound 150, 2′-((1R,3S)-3-(4-(4-fluorophenyl)piperazin-1-yl)cyclopentyl)-7′,8′-dihydro-3′H-spiro[cyclopropane-1,6′-quinazolin]-4′(5′H)-one] | 6.30 to 9.00 |
| O=c1[nH]c(CCCN2CCN(c3ccc(F)cc3)CC2)nc2c1CC1CC1C2 (stereo not drawn) [Compound 24, 2-(3-(4-(4-fluorophenyl)piperazin-1-yl)propyl)-5a,6,6a,7-tetrahydro-3H-cyclopropa[g]quinazolin-4(5H)-one] | 6.30 to 9.00 |
| O=c1[nH]c([C@H]2CC[C@@H](N3CCN(c4ccc(F)cc4)CC3)C2)nc2c1CC1(CC2)CC1 [Compound 151, 2′-((1S,3R)-3-(4-(4-fluorophenyl)piperazin-1-yl)cyclopentyl)-7′,8′-dihydro-3′H-spiro[cyclopropane-1,6′-quinazolin]-4′(5′H)-one] | 6.30 to 9.00 |
| Cc1cccc(N2CCN([C@H]3C=C(c4nc5c(c(=O)[nH]4)CC4(CC5)CC4)CC3)CC2)c1C [Compound 140, (R)-2′-(3-(4-(2,3-dimethylphenyl)piperazin-1-yl)cyclopent-1-en-1-yl)-7′,8′-dihydro-3′H-spiro[cyclopropane-1,6′-quinazolin]-4′(5′H)-one] | 5.30 to 6.30 |
| O=c1[nH]c(C2=C[C@H](N3CCN(c4ccc(Cl)c(Cl)c4)CC3)CC2)nc2c1CC1(CC2)CC1 [Compound 59, (R)-2′-(3-(4-(3,4-dichlorophenyl)piperazin-1-yl)cyclopent-1-en-1-yl)-7′,8′-dihydro-3′H-spiro[cyclopropane-1,6′-quinazolin]-4′(5′H)-one] | 3.30 to 5.30 |
| O=c1[nH]c([C@@H]2CC[C@@H](N3CCN(c4ccc(F)cc4)CC3)C2)nc2c1CC1(CC2)CC1 [Compound 152, 2′-((1R,3R)-3-(4-(4-fluorophenyl)piperazin-1-yl)cyclopentyl)-7′,8′-dihydro-3′H-spiro[cyclopropane-1,6′-quinazolin]-4′(5′H)-one] | 5.30 to 6.30 |
| O=c1[nH]c(CCCN2CC=C(c3ccc(F)cc3)CC2)nc2c1CCC1(CC1)C2 [Compound 16, 2′-(3-(4-(4-fluorophenyl)-5,6-dihydropyridin-1(2H)-yl)propyl)-5′,6′-dihydro-3′H-spiro[cyclopropane-1,7′-quinazolin]-4′(8′H)-one] | 3.30 to 5.30 |
| O=c1[nH]c(C2=C[C@H](N3CCN(c4cccc(Cl)c4)CC3)CC2)nc2c1CC1(CC2)CC1 [Compound 60, (R)-2′-(3-(4-(3-chlorophenyl)piperazin-1-yl)cyclopent-1-en-1-yl)-7′,8′-dihydro-3′H-spiro[cyclopropane-1,6′-quinazolin]-4′(5′H)-one] | 5.30 to 6.30 |
| CNC(=O)c1cccc(N2CCN([C@H]3C=C(c4nc5c(c(=O)[nH]4)CC4(CC5)CC4)CC3)CC2)c1 [Compound 87, (R)—N-methyl-3-(4-(3-(4′-oxo-4′,5′,7′,8′-tetrahydro-3′H-spiro[cyclopropane-1,6′-quinazolin]-2′-yl)cyclopent-2-en-1-yl)piperazin-1-yl)benzamide] | 6.30 to 9.00 |

Further lines, results first:

| pIC50 | SMILES |
| --- | --- |
| 6.30 to 9.00 | CNC(=O)c1ccc(N2CCN([C@H]3C=C(c4nc5c(c(=O)[nH]4)CC4(CC5)CC4)CC3)CC2)cc1 [Compound 54, (R)—N-methyl-4-(4-(3-(4′-oxo-4′,5′,7′,8′-tetrahydro-3′H-spiro[cyclopropane-1,6′-quinazolin]-2′-yl)cyclopent-2-en-1-yl)piperazin-1-yl)benzamide] |
| 6.30 to 9.00 | O=c1[nH]c(C2=C[C@H](N3CCN(c4ncc(Cl)cc4F)CC3)CC2)nc2c1CC1(CC2)CC1 [Compound 146, (R)-2′-(3-(4-(5-chloro-3-fluoropyridin-2-yl)piperazin-1-yl)cyclopent-1-en-1-yl)-7′,8′-dihydro-3′H-spiro[cyclopropane-1,6′-quinazolin]-4′(5′H)-one] |
| 6.30 to 9.00 | Cc1ccccc1N1CCN([C@H]2C=C(c3nc4c(c(=O)[nH]3)CC3(CC4)CC3)CC2)CC1 [Compound 90, (R)-2′-(3-(4-(o-tolyl)piperazin-1-yl)cyclopent-1-en-1-yl)-7′,8′-dihydro-3′H-spiro[cyclopropane-1,6′-quinazolin]-4′(5′H)-one] |
| 6.30 to 9.00 | Cc1ccc(N2CCN(CCCc3nc4c(c(=O)[nH]3)CC3(CC4)CC3)CC2)cc1 [Compound 32, 2′-(3-(4-(p-tolyl)piperazin-1-yl)propyl)-7′,8′-dihydro-3′H-spiro[cyclopropane-1,6′-quinazolin]-4′(5′H)-one] |
| 6.30 to 9.00 | CNC(=O)c1ccc(N2CCN([C@H]3C=C(c4nc5c(c(=O)[nH]4)CC4(CC5)CC4)CC3)CC2)nc1 [Compound 76, (R)—N-methyl-6-(4-(3-(4′-oxo-4′,5′,7′,8′-tetrahydro-3′H-spiro[cyclopropane-1,6′-quinazolin]-2′-yl)cyclopent-2-en-1-yl)piperazin-1-yl)nicotinamide] |
| 6.30 to 9.00 | O=c1[nH]c(C2=C[C@H](N3CCC(c4ccc(F)cc4)CC3)CC2)nc2c1CC1(CC2)CC1 [Compound 75, (R)-2′-(3-(4-(4-fluorophenyl)piperidin-1-yl)cyclopent-1-en-1-yl)-7′,8′-dihydro-3′H-spiro[cyclopropane-1,6′-quinazolin]-4′(5′H)-one] |
| 6.30 to 9.00 | O=c1[nH]c(C2=C[C@@H](N3CC=C(c4ccc(F)cc4)CC3)CC2)nc2c1CC1(CC2)CC1 [Compound 51, (S)-2′-(3-(4-(4-fluorophenyl)-5,6-dihydropyridin-1(2H)-yl)cyclopent-1-en-1-yl)-7′,8′-dihydro-3′H-spiro[cyclopropane-1,6′-quinazolin]-4′(5′H)-one] |
| 6.30 to 9.00 | Cc1cc(N2CCN([C@H]3C=C(c4nc5c(c(=O)[nH]4)CC4(CC5)CC4)CC3)CC2)ncc1Cl [Compound 141, (R)-2′-(3-(4-(5-chloro-4-methylpyridin-2-yl)piperazin-1-yl)cyclopent-1-en-1-yl)-7′,8′-dihydro-3′H-spiro[cyclopropane-1,6′-quinazolin]-4′(5′H)-one] |
| 6.30 to 9.00 | O=c1[nH]c(CCCN2CCN(c3ccccc3Cl)CC2)nc2c1CC1(CC2)CC1 [Compound 14, 2′-(3-(4-(2-chlorophenyl)piperazin-1-yl)propyl)-7′,8′-dihydro-3′H-spiro[cyclopropane-1,6′-quinazolin]-4′(5′H)-one] |
